Common to all, as to experiment: Antimicrobial test, broth dilution method (MIC)
Assay type in all cases: cell-based
Holding throughout (conditions): single compounds of Comparative Examples
On the technique in general: Dilution methods test growth across graded concentrations, often in twofold steps.

One experiment relates to P. aeruginosa. As to the method: (§1) The antimicrobial activity of the test solution was measured using a broth dilution method. The concentration of the test solution that was treated was diluted from the highest concentration of 5% to the lowest concentration of 0.0001%. The test solution was cultured in the presence of the strain and then the turbidity of the tube was determined. […] After the primary test described as above, the concentration of the test solution that was treated was further subdivided and a secondary test was conducted to obtain an accurate minimum inhibitory concentration (MIC).
(§2) Test strains E. coli, S. aureus, and P. aeruginosa were inoculated into tryptic soy broth and incubated at 35±2° C. for 16 to 24 hours. C. albicans was inoculated into Sabouraud dextrose broth and cultured at 35° C. for 24 hours. A. niger was seeded on potato dextrose agar and cultured at (25±1°) C for 7 days, sterile physiological saline was dispensed into a solid medium on which the bacteria grew, and spores were removed using a spreader and then diluted in sterile physiological saline.
(§3) A liquid medium was put into the tube and the concentration of the test solution that was treated was diluted from the highest concentration of 5% to the lowest concentration of 0.0001%. The liquid media used for E. coli, S. aureus, and P. aeruginosa (bacteria) were tryptic soy broth, and the liquid media used for C. albicans, and A. niger (fungi) were Sabouraud dextrose broth.
(§4) E. coli, S. aureus, and P. aeruginosa of the strains were inoculated at a concentration of 1×10^5 CFU/mL in the test tube. The tubes treated with the test solution were incubated at 35±2° C. for 16 to 24 hours. C. albicans and A. niger were inoculated at a concentration of 1×10^4 CFU/mL in the test tube. After treatment with the test solution was completed, C. albicans was cultured at 35° C. for 24 to 48 hours and A. niger was cultured at 25° C. for 46 to 50 hours. A medium tube, to which the bacterial solution was not added, was used as a negative control, and a tube containing the medium inoculated with only the bacterial solution without the test solution was used as a growth control. In addition, in order to determine the antimicrobial activity of dipropylene glycol itself used as a solvent, the MIC of the test bacteria for the solvent was measured under the same conditions as in the sample.

The test system of the next experiment is C. albicans. The protocol:
as §1, §2, §3, §4

In another experiment the test system is E. coli. As to the method:
as §1, §2, §3, §4

A further experiment concerns A. niger. The protocol: as §1, §2, §3, §4
The subject of a further experiment is S. aureus. The protocol: as §1, §2, §3, §4

Consider `CC(=O)CCc1ccc(O)cc1` [Comparative Example 11, Raspberry ketone], for which the “minimum inhibitory concentration (MIC), P. Aeruginosa” value in the experiment on P. aeruginosa was determined as 0.1%. Besides, in the experiment with C. albicans, the “minimum inhibitory concentration (MIC), C. albicans” value worked out at 1%. The “minimum inhibitory concentration (MIC), E. coli” value in the experiment on E. coli worked out at 0.5%. Moreover, the “minimum inhibitory concentration (MIC), A. niger” value in the experiment with A. niger is given as 0.5%. For the same molecule, the “minimum inhibitory concentration (MIC), S. Aureus” value in the experiment on S. aureus was 0.1%.

Regarding `Cc1cc(CC(C)CC(C)(C)C)n(O)c(=O)c1` (centres unmarked) [Comparative Example 18, Piroctone olamine], in the experiment with P. aeruginosa, the “minimum inhibitory concentration (MIC), P. Aeruginosa” value turned out to be 0.2%. Besides, in the experiment on C. albicans, the “minimum inhibitory concentration (MIC), C. albicans” value was found to be 0.2%. Further, the “minimum inhibitory concentration (MIC), E. coli” value with E. coli is listed as 0.05%. The “minimum inhibitory concentration (MIC), A. niger” value in the experiment on A. niger is given as 0.3%. The “minimum inhibitory concentration (MIC), S. Aureus” value with S. aureus stood at 0.05%.

Regarding `CCCCCCCCCCCCNCC(O)CO` (centres unmarked) [Comparative Example 1, (3-dodecylamino)propane-1,2-diol], the “minimum inhibitory concentration (MIC), P. Aeruginosa” value in the experiment with P. aeruginosa is 0.03%. In the experiment on C. albicans, the “minimum inhibitory concentration (MIC), C. albicans” value turned out to be 0.01%. Moreover, in the experiment with E. coli, the “minimum inhibitory concentration (MIC), E. coli” value turned out to be 0.01%. The “minimum inhibitory concentration (MIC), A. niger” value in the experiment with A. niger stood at 0.09%. Moreover, the “minimum inhibitory concentration (MIC), S. Aureus” value in the experiment on S. aureus is 0.01%.

`CCCCCCOCC(O)CO` (centres unmarked) [Comparative Example 5, Hexyl glycerin]: the “minimum inhibitory concentration (MIC), P. Aeruginosa” value in the experiment on P. aeruginosa is on record as 0.5%. In addition, the “minimum inhibitory concentration (MIC), C. albicans” value in the experiment with C. albicans worked out at 0.64%. The “minimum inhibitory concentration (MIC), E. coli” value in the experiment with E. coli is reported as 0.2%. Besides, in the experiment on A. niger, the “minimum inhibitory concentration (MIC), A. niger” value was 0.32%. Also, the “minimum inhibitory concentration (MIC), S. Aureus” value in the experiment on S. aureus was 0.5%.

For the origin of these results see US20240245051A1, “DISINFECTING, ANTIMICROBIAL AND PRESERVATIVE COMPOSITION” (BJBIOCHEM CO., LTD., priority 2021, published 2024).
